Laboratory results reported in US8791144B2, “Substituted N-phenyl-1-(4-Pyridinyl)-1H-pyrazol-3-amines” (Janssen Pharmaceutica NV, priority 2009, dated 2014).

Tests used:
hα7-wt nAChR [1] = biological target: T1, hα7-wt nAChR (Homo sapiens, UniProt P36544); assay: Ca2+ flux imaging (FDSS): potentiation of the choline response; format: cell-based; settings: Ca2+ assay as described in D.1; potentiation of choline response, hα7-wt nAChR; read-out: Potency (pEC50) (converted)
Experimental: • a) Assay Buffer • Hanks buffered saline solution (HBSS, Invitrogen, Belgium), supplemented with 10 mM HEPES (Invitrogen, Belgium), CaCl2 to a final concentration of 5 mM, 0.1% Bovine serum albumin (Sigma-Aldrich NV, Belgium). • b) Calcium-Sensitive Dye—Fluo-4AM • Fluo-4AM (Molecular Probes, USA) was dissolved in DMSO containing 10% Pluronic acid (Molecular Probes, USA) to give a stock solution which was diluted in assay buffer supplemented with 5 mM probenicid (Sigma, Aldrich NV, Belgium) to give a final concentration of 2 μM. • c) 384-Well Plates • Black 384 well plate black/clear plates, PDL pre-coated (Corning, Incorporated, USA) • d) Calcium Flux Measurement • A Functional drug screening system (FDSS, Hamamatsu) was used to measure intracellular free-calcium flux signals. Method
Monolayers of hα7-wt nAChR-expressing cells were grown in multi-well plates, in particular black-sided, transparent bottomed 384 well plates coated with poly-D-lysine for 24 hours prior to loading with a fluorescent calcium indicator, in a particular embodiment loading with fluo-4AM for up to 120 minutes.
PAM activity was detected in real time by applying the compounds to be tested to the loaded cells along with a α7 nicotinic receptor agonist during constant monitoring of cellular fluorescence in a FDSS. Compounds giving peak fluorescent responses greater than the response due to agonist alone, were considered to be α7 nAChR PAM's. In a particular embodiment, the α7 nicotinic receptor agonist was choline, a more particular embodiment choline applied at a sub-maximal concentration of 100 μM. In a further setting of the present invention the compounds to be tested were applied prior to the α7 nicotinic receptor agonist, in a particular embodiment up to 10 minutes prior to the agonist.
A control response to choline was calculated on each plate from the difference in peak in fluorescence in wells receiving either choline or assay buffer alone. Compounds of the present invention were tested at a concentration range from 0.01 μM to 30 μM. Compounds were considered to have an interesting activity when they potentiated the choline signal at least with 200% when tested at a concentration of 30 μM (the efficacy of 100 μM choline was defined as 100% in the absence of a PAM). An EC50 (or pEC50) was determined as a concentration relating to half the maximal effect, when a clear sigmoidal curve with top plateau was obtained.

hα7-wt nAChR [2] = biological target: T1, hα7-wt nAChR; assay: Patch-clamp current recording (whole-cell voltage clamp), potentiation of choline current and PAM type; format: cell-based; design: key: Type 0 compounds minimally enhance the effect size of the current elicited by 1 mM choline.; Type 1 compounds enhance the effect size of the current elicited by 1 mM choline but minimally alter the kinetics of the receptor.; Type 2 compounds enhance the effect size of the current elicited by 1 mM choline while reducing the rate and/or the extent of desensitization.; Type 3 compounds enhance the effect size of the current elicited by 1 mM choline. When tested at higher concentrations up to 10 μM they completely inhibit desensitization, in particular a 1 mM choline application of 250 milliseconds.; Type 4 compounds allow for an initial desensitization of the receptor followed by a re-opening of the receptor during agonist application; settings: hα7-wt nAChR-expressing GH4C1 cells, 1 mM choline
Experimental: The compounds of the present invention are classified as type 0-4, based on qualitative kinetic properties, as determined by whole-cell voltage-clamp recordings. This classification is based on the effect of an α7 PAM compound, as described hereinbefore, on the signal elicited by an agonist application. In particular, said agonist is choline at a concentration of 1 mM. In a preferred experimental setting, said α7 PAM compound and choline are simultaneously applied to the cell, as described hereinafter. Desensitization is defined as the closure of the receptor upon activation during the application of the agonist in whole-cell voltage-clamp electrophysiology measurements seen as the reduction of the […] current after initial activation by the agonist.
The definition of the PAM types 0-4 is described hereinafter: • Type 0 compounds minimally enhance the effect size of the current elicited by 1 mM choline. • Type 1 compounds enhance the effect size of the current elicited by 1 mM choline but minimally alter the kinetics of the receptor. In particular, the rate and the extent of desensitization, elicited by the agonist, is not affected. The compound-modulated response to 1 mM choline, therefore, is a close to linear scaling of the 1 mM choline response in absence of the α7 PAM compound. • Type 2 compounds enhance the effect size of the current elicited by 1 mM choline while reducing the rate and/or the extent of desensitization. • Type 3 compounds enhance the effect size of the current elicited by 1 mM choline. […] At low-potency concentrations of the α7 PAM compound, the agonist-induced activation, which is followed by desensitization, can still be separated from the compound-induced re-opening as an initial inward current-maximum. At higher potency concentrations of the α7 PAM compound, the re-opening occurs faster than the closure due to desensitization so that the initial current-maximum disappears.
A compound was considered to have interesting PAM-like activity when the potentiation of the peak current was at least 200% compared to the control choline response (=100%). Such compounds are classified as belonging to a particular PAM type in the Experimental Part. Compounds not meeting the condition are not classified as belonging to a particular PAM-type.
The compounds also have a potentiating effect on the response to choline when measured by whole-cell patch clamp electrophysiology in GH4C1 cells stably over-expressing the human wild-type α7 receptor.
Patch-clamp recording from mammalian cells has provided a powerful means of assessing the function of membrane-bound proteins thought to be subunits of ligand-gated ion channels. Activation of such proteins by endogenous or exogenous ligands cause opening of a pore associated with the receptor through which ions flow down their electrochemical gradient. In the case of the hα7-wt nAChR-expressing GH4C1 recombinant cell line the preferential permeability to calcium of this receptor means that calcium flows into the cell upon activation by ACh, choline and other nicotinic ligands giving rise to a calcium current. Since this receptor rapidly desensitizes in the presence of agonist it is important an application system is used which is capable of very rapid switching of solutions (<100 ms) to prevent partial or full desensitisation of receptor responses coincident with the time of agonist application. Consequently, a second convenient technique to assess the enhancement of nicotinic efficacy is patch-clamp recording from hα7-wt nAChR-expressing GH4C1 cells coupled with a rapid-application system.
• a) Assay Buffers • The external recording solution consisted of 152 mM NaCl, 5 mM KCl, 1 mM MgCl2, 1 mM Calcium, 10 mM HEPES; pH 7.3. […]

T1 sequence (P36544 23-502): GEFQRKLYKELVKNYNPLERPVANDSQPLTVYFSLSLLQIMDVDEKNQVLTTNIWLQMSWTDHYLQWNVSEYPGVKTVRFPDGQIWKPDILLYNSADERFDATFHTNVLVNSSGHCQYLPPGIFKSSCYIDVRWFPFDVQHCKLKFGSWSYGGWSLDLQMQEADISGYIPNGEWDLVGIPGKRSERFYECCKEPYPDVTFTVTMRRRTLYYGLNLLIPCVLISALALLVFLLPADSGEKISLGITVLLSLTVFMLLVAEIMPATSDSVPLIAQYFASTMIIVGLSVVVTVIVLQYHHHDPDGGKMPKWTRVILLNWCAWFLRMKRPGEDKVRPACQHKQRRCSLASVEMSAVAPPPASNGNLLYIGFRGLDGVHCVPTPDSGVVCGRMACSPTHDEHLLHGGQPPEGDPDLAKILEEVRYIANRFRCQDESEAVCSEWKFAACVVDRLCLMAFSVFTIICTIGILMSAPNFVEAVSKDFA

| Compound | EC50 (hα7-wt nAChR [1]) | melting point | PAM type (hα7-wt nAChR [2]) |
| --- | --- | --- | --- |
| Cc1cc(-n2nc(Nc3ccc(F)c(F)c3)cc2CC(=O)NCC2CC2)ccn1 [Compound 29, N-(cyclopropylmethyl)-3-[(3,4-difluorophenyl)amino]-1-(2-methyl-4-pyridinyl)-1H-pyrazole-5-acetamide] | 692 nM | 230.3 °C | 2 |
| Cc1cc(-n2nc(Nc3ccc(F)c(F)c3)cc2COCc2ccccc2)ccn1 [Compound 31, N-(3,4-difluorophenyl)-1-(2-methyl-4-pyridinyl)-5-[(phenylmethoxy)methyl]-1H-pyrazol-3-amine] | 1150 nM | 171 °C | 0 |
| CC[C@@H](O)Cc1cc(Nc2cccc(C(F)(F)F)c2)nn1-c1ccnc(C)c1 [Compound 35, (alphaR)-alpha-ethyl-1-(2-methyl-4-pyridinyl)-3-[[3-(trifluoromethyl)phenyl]amino]-1H-pyrazole-5-ethanol] | 692 nM | 170 °C | 2 |
| CC[C@H](O)Cc1cc(Nc2cccc(C(F)(F)F)c2)nn1-c1ccnc(C)c1 [Compound 37, (alphaS)-alpha-ethyl-1-(2-methyl-4-pyridinyl)-3-[[3-(trifluoromethyl)phenyl]amino]-1H-pyrazole-5-ethanol] | 2290 nM | 169.5 °C | 2 |
| CC[C@H](O)Cc1cc(Nc2ccc(OC)c(C(F)(F)F)c2)nn1-c1ccnc(C)c1 [Compound 38, (alphaS)-alpha-ethyl-3-[[4-methoxy-3-(trifluoromethyl)phenyl]amino]-1-(2-methyl-4-pyridinyl)-1H-pyrazole-5-ethanol] | 1320 nM | 129 °C | 2 |
| CC[C@H](O)Cc1cc(Nc2cc(OC)cc(C(F)(F)F)c2)nn1-c1ccnc(C)c1 [Compound 39, (alphaS)-alpha-ethyl-3-[[3-methoxy-5-(trifluoromethyl)phenyl]amino]-1-(2-methyl-4-pyridinyl)-1H-pyrazole-5-ethanol] | 933 nM | 129.2 °C | 4 |
| CNC(=O)Cc1cc(Nc2cc(OC)cc(C(F)(F)F)c2)nn1-c1ccnc(C)c1 [Compound 43, 3-[[3-methoxy-5-(trifluoromethyl)phenyl]amino]-N-methyl-1-(2-methyl-4-pyridinyl)-1H-pyrazole-5-acetamide] | 562 nM | 237.9 °C | 4 |
| CCNC(=O)Cc1cc(Nc2cccc(C(F)(F)F)c2)nn1-c1ccnc(C)c1 [Compound 44, N-ethyl-1-(2-methyl-4-pyridinyl)-3-[[3-(trifluoromethyl)phenyl]amino]-1H-pyrazole-5-acetamide] | 603 nM | 228.9 °C | 2 |
| CCNC(=O)Cc1cc(Nc2cc(OC)cc(C(F)(F)F)c2)nn1-c1ccnc(C)c1 [Compound 45, N-ethyl-3-[[3-methoxy-5-(trifluoromethyl)phenyl]amino]-1-(2-methyl-4-pyridinyl)-1H-pyrazole-5-acetamide] | 200 nM | 248.6 °C | 4 |
| COc1cc(Nc2cc(CC(=O)NC3CC3)n(-c3ccnc(C)c3)n2)cc(C(F)(F)F)c1 [Compound 46, N-cyclopropyl-3-[[3-methoxy-5-(trifluoromethyl)phenyl]amino]-1-(2-methyl-4-pyridinyl)-1H-pyrazole-5-acetamide] | 234 nM | 251.3 °C | 4 |
| Cc1cc(-n2nc(Nc3cccc(C(F)(F)F)c3)cc2CC(=O)NCC2CC2)ccn1 [Compound 47, N-(cyclopropylmethyl)-1-(2-methyl-4-pyridinyl)-3-[[3-(trifluoromethyl)phenyl]amino]-1H-pyrazole-5-acetamide] | 219 nM | 207.5 °C | 4 |
| COc1cc(Nc2cc(CC(=O)NC3CCC3)n(-c3ccnc(C)c3)n2)cc(C(F)(F)F)c1 [Compound 48, N-cyclobutyl-3-[[3-methoxy-5-(trifluoromethyl)phenyl]amino]-1-(2-methyl-4-pyridinyl)-1H-pyrazole-5-acetamide] | 79.4 nM | 249.2 °C | 4 |
| CC[C@H](O)Cc1cc(Nc2cccc(Cl)c2)nn1-c1ccnc(C)c1 [Compound 57, (alphaS)-3-[(3-chlorophenyl)amino]-alpha-ethyl-1-(2-methyl-4-pyridinyl)-1H-pyrazole-5-ethanol] | 2240 nM | 149.3 °C | 2 |
| CC[C@H](O)Cc1cc(Nc2cccc(Cl)c2F)nn1-c1ccnc(C)c1 [Compound 58, (alphaS)-3-[(3-chloro-2-fluorophenyl)amino]-alpha-ethyl-1-(2-methyl-4-pyridinyl)-1H-pyrazole-5-ethanol] | 2510 nM | 168.2 °C | 1 |
| CC[C@H](O)Cc1cc(Nc2cc(Cl)cc(OC)c2)nn1-c1ccnc(C)c1 [Compound 61, (alphaS)-3-[(3-chloro-5-methoxyphenyl)amino]-alpha-ethyl-1-(2-methyl-4-pyridinyl)-1H-pyrazole-5-ethanol] | 794 nM | 125.3 °C | 2 |
| CNC(=O)Cc1cc(Nc2cccc(Cl)c2F)nn1-c1ccnc(C)c1 [Compound 71, 3-[(3-chloro-2-fluorophenyl)amino]-N-methyl-1-(2-methyl-4-pyridinyl)-1H-pyrazole-5-acetamide] | 2240 nM | 229.7 °C | 2 |
| CNC(=O)Cc1cc(Nc2cc(Cl)cc(OC)c2)nn1-c1ccnc(C)c1 [Compound 72, 3-[(3-chloro-5-methoxyphenyl)amino]-N-methyl-1-(2-methyl-4-pyridinyl)-1H-pyrazole-5-acetamide] | 1820 nM | 215 °C | 3 |
